These results are taken from ChEMBL document CHEMBL1201862, “PubChem BioAssay data set” (2004).

Assay [1] relates to HEK293. In words: cytotoxicity in HEK293T NF-kB-Luc cells, SAR follow-up, cytotoxicity control for NF-kB activator project, cell-based, resazurin fluorescence (AID 493251). The format is functional. Conditions: Homo sapiens. A general note: The colour change of resazurin is a common sign of viable cells or microbes.
Another assay has as its system Jurkat. The assay can be described thus: SAR Analysis of small molecule inhibitors of T-cell specific antigen receptor-induced NF-kB activation in a Jurkat cell line using a luminescence assay - Set 2. [Related pubchem assays (depositor defined):AID435003, AID435012, AID465]. In kind it is functional, cell-based. Conditions: Homo sapiens.
The test system of assay [2] is HEK293. In words: SAR Analysis of small molecule inhibitors of T-cell specific antigen receptor-induced NF-kB activation in a HEK-293T cell line using a luminescence assay - Set 2. [Related pubchem assays (depositor defined):AID435003, AID435012, AID489026]. In kind it is functional, cell-based. The settings on record: Homo sapiens.
Assay [3] in a line: inhibitors of firefly luciferase expression or activity, dose response, H4 neuroglioma cells, luminescence (AID 1990). In kind it is functional, cell-based.
The test system of assay [4] is BJ. In words: cytotoxicity toward BJ-TERT fibroblasts, dose response, cell-based, RAS-independent, luminescence (AID 1933). In kind it is functional. The settings on record: Homo sapiens.
The nature of assay [5]: Luminescence Cell-Based Dose Response HTS to Identify Inhibitors of 5'UTR Stem-Loop Driven Prion Protein mRNA Translation in H4 Neuroglioblastoma Cells. [Related pubchem assays: 1827 (Project Summary), 1813 (Primary HTS)]. In kind it is functional.
In assay [6] the target is T1, Heat shock factor protein 1 (Mus musculus, UniProt P38532).
T1 sequence (P38532 whole entry): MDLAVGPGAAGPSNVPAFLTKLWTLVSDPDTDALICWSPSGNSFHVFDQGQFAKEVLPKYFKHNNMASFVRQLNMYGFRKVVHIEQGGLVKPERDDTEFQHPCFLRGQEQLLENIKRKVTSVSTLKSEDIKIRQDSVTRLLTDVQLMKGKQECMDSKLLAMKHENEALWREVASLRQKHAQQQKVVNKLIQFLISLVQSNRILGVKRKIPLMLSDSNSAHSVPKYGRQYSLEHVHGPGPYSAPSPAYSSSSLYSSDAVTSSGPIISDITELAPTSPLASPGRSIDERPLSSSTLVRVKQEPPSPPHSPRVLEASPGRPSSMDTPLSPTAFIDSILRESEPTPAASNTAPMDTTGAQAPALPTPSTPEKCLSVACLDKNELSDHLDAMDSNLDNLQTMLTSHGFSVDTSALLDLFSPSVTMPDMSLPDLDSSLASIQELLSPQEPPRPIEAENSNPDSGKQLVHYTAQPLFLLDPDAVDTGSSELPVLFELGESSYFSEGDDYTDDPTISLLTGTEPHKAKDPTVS
The assay can be described thus: inhibition of MG132-induced HSE-luciferase signal, confirmation, cell-based, NIH3T3, luminescence, dose retest (AID 2382).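 Further: NIH3T3 fibroblasts with HSF1-driven luciferase reporter stressed by proteasome inhibitor MG132; luminescence from HSF1-driven luciferase expression after 8 hours of MG132 stress.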 In kind it is functional.

Assay [7] in a line: inhibitors of SNCA 5'UTR-driven reporter translation, confirmation, H4 neuroglioma cells, luminescence (AID 1988). The format is functional, cell-based.
In assay [8] the test system is BJ. In words: cells. The format is functional, cell-based. The settings on record: Homo sapiens.
Assay [9] deals with BJ. The assay can be described thus: cytotoxicity toward BJ-TERT-LT-ST fibroblasts, dose response, cell-based, RAS-independent, luminescence (AID 1935).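 Further: BJ fibroblasts immortalized with TERT plus LT and ST oncogenes.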 Conditions: Homo sapiens. In kind it is functional.
A short description of assay [10]: cytotoxicity toward DRD oncogenic fibroblasts, dose response, cell-based, non-viral oncogenic, luminescence (AID 1934). The format is functional. The settings on record: Homo sapiens.
Assay [11] deals with T2, Replicative DNA helicase DnaB (Mycobacterium tuberculosis, UniProt P9WMR3).
T2 sequence (P9WMR3 whole entry): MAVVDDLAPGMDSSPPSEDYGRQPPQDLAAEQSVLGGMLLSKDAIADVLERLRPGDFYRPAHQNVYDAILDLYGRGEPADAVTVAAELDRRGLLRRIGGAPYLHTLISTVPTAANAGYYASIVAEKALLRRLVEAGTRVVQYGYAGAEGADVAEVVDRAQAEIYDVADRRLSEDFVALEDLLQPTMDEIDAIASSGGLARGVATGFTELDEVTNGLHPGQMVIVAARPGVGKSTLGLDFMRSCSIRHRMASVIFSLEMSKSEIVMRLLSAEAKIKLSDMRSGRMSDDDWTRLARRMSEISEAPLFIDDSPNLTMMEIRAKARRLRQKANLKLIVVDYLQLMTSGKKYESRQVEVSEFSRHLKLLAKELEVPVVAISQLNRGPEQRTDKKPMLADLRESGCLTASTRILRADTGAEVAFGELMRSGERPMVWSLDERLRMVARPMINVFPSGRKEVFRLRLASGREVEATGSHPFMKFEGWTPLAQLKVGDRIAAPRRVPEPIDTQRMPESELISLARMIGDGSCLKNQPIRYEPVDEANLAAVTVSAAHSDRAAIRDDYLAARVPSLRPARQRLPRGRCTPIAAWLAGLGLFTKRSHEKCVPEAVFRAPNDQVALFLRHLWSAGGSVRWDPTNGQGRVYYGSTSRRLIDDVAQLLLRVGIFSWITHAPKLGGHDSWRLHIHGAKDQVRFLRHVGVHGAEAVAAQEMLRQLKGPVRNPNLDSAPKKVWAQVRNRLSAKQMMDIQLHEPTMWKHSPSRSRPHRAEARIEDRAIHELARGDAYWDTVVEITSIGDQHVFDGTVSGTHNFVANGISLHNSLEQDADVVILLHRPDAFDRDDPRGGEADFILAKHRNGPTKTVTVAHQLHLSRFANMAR
The assay can be described thus: DnaB intein splicing inhibitors, dose response, biochemical, cell-free fluorescence (AID 449749). The format is functional.

The test system of assay [12] is BJ. The assay can be described thus: cytotoxicity toward Ras-transformed BJeLR fibroblasts, dose response, cell-based, alamar blue fluorescence, cherrypicked samples (AID 2631).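 Further: confirmatory dose-response assay in RAS-dependent BJ fibroblasts engineered with TERT, LT and ST, with cytotoxicity read by fluorescence.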 The settings on record: Homo sapiens. The format is functional.
The target of a further assay is T3, Protein RecA (Mycobacterium tuberculosis, UniProt P9WHJ3).
T3 sequence (P9WHJ3 whole entry): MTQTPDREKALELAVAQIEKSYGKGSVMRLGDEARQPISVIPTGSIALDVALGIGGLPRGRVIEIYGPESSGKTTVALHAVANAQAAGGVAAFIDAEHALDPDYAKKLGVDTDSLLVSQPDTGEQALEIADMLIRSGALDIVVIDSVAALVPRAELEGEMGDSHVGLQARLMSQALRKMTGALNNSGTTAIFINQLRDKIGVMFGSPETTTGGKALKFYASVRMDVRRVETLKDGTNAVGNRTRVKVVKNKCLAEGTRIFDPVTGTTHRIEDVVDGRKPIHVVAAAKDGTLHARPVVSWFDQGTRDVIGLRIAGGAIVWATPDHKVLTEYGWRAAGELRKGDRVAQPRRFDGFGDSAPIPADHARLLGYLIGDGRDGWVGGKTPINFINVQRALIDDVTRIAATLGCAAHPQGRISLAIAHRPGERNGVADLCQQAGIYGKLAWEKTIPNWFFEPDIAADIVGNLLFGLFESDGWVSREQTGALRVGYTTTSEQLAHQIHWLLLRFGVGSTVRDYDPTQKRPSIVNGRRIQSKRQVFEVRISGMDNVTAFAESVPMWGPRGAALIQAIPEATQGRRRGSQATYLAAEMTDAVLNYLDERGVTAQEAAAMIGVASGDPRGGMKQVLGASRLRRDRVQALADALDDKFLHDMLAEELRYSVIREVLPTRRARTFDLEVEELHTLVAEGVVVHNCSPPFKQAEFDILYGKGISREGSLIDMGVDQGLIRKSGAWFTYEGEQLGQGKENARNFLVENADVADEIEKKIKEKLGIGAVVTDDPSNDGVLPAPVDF
In words: Fluorescence Cell-Free Homogeneous Dose Retest to Identify Inhibitors of RecA-Intein Splicing Activity. [Related pubchem assays (depositor defined):AID2097, AID2223, AID489010, AID492950]. In kind it is functional.

Assay [13] concerns Candida albicans. In words: growth inhibition of resistant C. albicans, dose response, CaCi-8 strain, fluconazole, dry powder, set 4 (AID 488950). In kind it is functional, organism-based.
The test system of assay [14] is Candida albicans. In words: C. albicans growth inhibition with fluconazole, dose response, antifungal resistance reversal project, CaCi-2 strain, Alamar Blue, dry powder, set 2 (AID 488930). In kind it is functional, organism-based.
The test system of assay [15] is Candida albicans. The assay can be described thus: fluconazole resistance reversal in C. albicans, dose response, CaCi-2 strain, Alamar Blue, dry powder, set 4 (AID 488943). The format is functional, organism-based.
Assay [16] has as its system Candida albicans. In words: growth inhibition of azole-resistant C. albicans, dose response, CaCi-8 strain, Alamar Blue, dry powder, set 2 (AID 488909). The format is functional, organism-based.
In another assay the target is Nonstructural protein 1 (Influenza A virus, UniProt Q194T2). The format is functional, Influenza A virus (A/California/07/2009(H1N1)).
The subject of the next assay is Vero. In words: Vero E6 cell cytotoxicity, dose response, cytotoxicity control (AID 540298). The settings on record: Chlorocebus sabaeus. In kind it is functional.
Assay [17] has as its system MDCK. In words: MDCK cell cytotoxicity, dose response, cytotoxicity control (AID 540296). In kind it is functional. Conditions: Canis lupus familiaris.
Assay [18] concerns MDCK. The assay can be described thus: antiviral activity against H1N1 influenza, dose response, cell-based, strain KY136 (AID 540257). The format is functional. The settings on record: Canis lupus familiaris.
For assay [19], the target named is T4, Beta-adrenergic receptor kinase 1 (Homo sapiens, UniProt P25098). The assay can be described thus: aptamer displacement from bead-bound GRK2 – biochemical, cherry pick 1, bead flow cytometry, dose response (AID 504500). (Flow cytometry measures light scatter and fluorescence of single cells or particles in a stream.)
The target in assay [20] is T4, Beta-adrenergic receptor kinase 1. In words: GRK2 inhibitors displacing RNA aptamer, dose response, biochemical, flow cytometry beads, FAM-aptamer, powder set 1 (AID 588720).
Assay [21] concerns the target T5, Small ubiquitin-related modifier 1 (Homo sapiens, UniProt P63165). In words: inhibitors of SUMO1 peptide binding, dose response, biochemical, fluorescence polarization, uHTS hits (AID 624382). In kind it is functional. Conditions: read-out: IC50_Mean. In general terms: Fluorescence polarisation rises when a labelled molecule tumbles more slowly, as on binding a larger partner.

Assay [22] addresses T5, Small ubiquitin-related modifier 1. The assay can be described thus: inhibitors of SUMO1 partner interactions, dose response, biochemical, FRET (AID 624383). The format is functional. The settings on record: read-out: IC50_Mean.

Calls of active or inactive are those of the source.

T4 sequence (P25098 whole entry): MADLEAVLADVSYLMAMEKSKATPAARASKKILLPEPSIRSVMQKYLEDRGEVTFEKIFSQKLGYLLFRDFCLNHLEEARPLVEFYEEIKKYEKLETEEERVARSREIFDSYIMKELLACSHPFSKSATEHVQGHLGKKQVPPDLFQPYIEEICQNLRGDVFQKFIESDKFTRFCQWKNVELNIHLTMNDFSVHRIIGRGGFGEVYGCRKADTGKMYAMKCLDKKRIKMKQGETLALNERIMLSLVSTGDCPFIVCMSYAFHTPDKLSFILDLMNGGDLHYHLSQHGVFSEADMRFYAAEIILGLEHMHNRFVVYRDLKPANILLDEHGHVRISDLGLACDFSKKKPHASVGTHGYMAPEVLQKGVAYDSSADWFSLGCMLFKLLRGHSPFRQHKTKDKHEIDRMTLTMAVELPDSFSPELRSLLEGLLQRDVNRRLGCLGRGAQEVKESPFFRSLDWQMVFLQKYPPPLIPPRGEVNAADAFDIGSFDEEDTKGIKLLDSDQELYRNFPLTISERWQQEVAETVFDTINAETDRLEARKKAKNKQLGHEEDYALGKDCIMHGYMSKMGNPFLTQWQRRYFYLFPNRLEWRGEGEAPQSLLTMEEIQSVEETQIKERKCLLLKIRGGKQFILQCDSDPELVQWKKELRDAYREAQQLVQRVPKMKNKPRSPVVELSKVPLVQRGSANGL
T5 sequence (P63165 whole entry): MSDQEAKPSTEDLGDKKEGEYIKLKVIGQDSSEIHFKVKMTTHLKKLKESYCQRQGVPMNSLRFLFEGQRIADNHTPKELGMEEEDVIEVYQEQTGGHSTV
Chain of Nonstructural protein 1 (Q194T2 whole entry): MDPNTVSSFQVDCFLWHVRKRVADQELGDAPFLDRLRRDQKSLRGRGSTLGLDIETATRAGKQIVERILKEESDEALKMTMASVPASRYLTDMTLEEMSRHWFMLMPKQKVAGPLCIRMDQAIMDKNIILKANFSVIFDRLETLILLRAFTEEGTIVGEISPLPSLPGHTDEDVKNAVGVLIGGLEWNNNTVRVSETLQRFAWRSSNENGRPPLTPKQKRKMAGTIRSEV

On to `COc1ccccc1C(NC(C)=O)c1ccc2cccnc2c1O` (stereo not drawn), for which the IC50 in the assay with HEK293 [1] is 7.73 µM (active); in the assay with Jurkat, 7.09 µM (active); in the assay with HEK293 [2], 7.96 µM (active).

Usually EC50 stands for the concentration needed to bring the measured effect to its halfway point. What is called AC50 is the concentration giving half of the maximal activity seen. As for `COc1cc(C2CC(c3cccs3)=NN2C(=O)CCl)ccc1OC(F)F` (stereo not drawn), the EC50 is > 120 µM (not active) in assay [3]; 0.625 µM (active) with BJ [4]; 11 µM (active) in [5]; 3.04 µM (active) in [6]; 8.46 µM (active) in [7]; 2.56 µM (active) in the assay on BJ [8]. Further, the EC50 was 4.47 µM (inconclusive) in the assay with BJ [9], 1.95 µM (active) in assay [10], 0.608 µM (active) with BJ [12] and 1.13 µM (active) at Protein RecA. For the same compound, the half-maximal activity concentration (AC50) in assay [11] was 1.51 µM (active).

As to `CC1CN(c2ccnc3cc(Cl)ccc23)CCN1C(=O)c1ccc(Cl)cc1` (stereo not drawn), the AC50 in the assay with Candida albicans [13] is 1.82 µM (active); with Candida albicans [14] it was 0.645 µM (active); in the assay on Candida albicans [15] it was 0.783 µM (active); with Candida albicans [16], 6.14 µM (active).

One may read the CC50 as the concentration giving 50% cytotoxicity. Take `COc1cccc(/C=C2\SC(=S)N(CCCC(=O)N3CCCC3)C2=O)c1`: the values for the IC50 on Nonstructural protein 1 and in the assay with MDCK [18] were 66.8 µM (active) and 32.9 µM (active), respectively. In addition, the AC50 in assay [11] is 71.1 µM (active). Moreover, the results for the CC50 with Vero and in the assay on MDCK [17] were 12.8 µM (active) and > 40 µM (active), respectively. In addition, the EC50 at Protein RecA was > 380 µM (inactive).

As to `CC(CS(=O)(=O)c1ccc2c(c1)NC(=O)CS2)C(=O)NCc1ccccc1Cl` (stereo not drawn), the results for the EC50 in [19] and in assay [20] were 7.53 µM (active) and 0.638 µM (active), respectively. Also, the IC50 is > 66.6 µM (inactive) in assay [21] and 4.08 µM (active) in assay [22].
